The record followed here is patent US7541478B2, “Coumarin derivative and use thereof” (Takeda Pharmaceutical Company Limited, priority 2004, dated 2009).

Data set [1] can be described thus: Oral absorbability: blood level of Compound X after oral administration to rabbits. Particulars: male New Zealand white rabbits (n=3), 0.5% methylcellulose suspension, 10 mg/kg in terms of Compound X, blood level of Compound X measured. It counts as in vivo. The method, then:
[Method] Male New Zealand white rabbits (n=3) were forced to take Compound A, B or X orally (0.5% suspension in methylcellulose, the dose was 10 mg/kg in terms of Compound X). A blood level of Compound X was measured with time to determine the maximum blood level (Cmax) and time required for reaching the maximum blood level (Tmax). Compound X:(2E)-3-{3-[7-chloro-3-(2-{[4-fluoro-2-(trifluoromethyl)phenyl]amino}-2-oxoethyl)-6-methyl-2-oxo-2H-chromen-4yl]phenyl}acrylic acid described in International Publication WO02/06264.

Data set [2] has as its target T1, mouse abdominal macrophage microsome ACAT (Mus musculus, UniProt Q61263).
T1 construct: then ultracentrifuged (4° C., 50,000 rpm, 90 minutes) to prepare a microsome; from tissue; host or cells: abdominal (peritoneal) macrophages of thioglycolate-stimulated C57BL6J mice, cultured 24 h with rabbit beta-VLDL; microsomal fraction
T1 sequence (Q61263 1-540): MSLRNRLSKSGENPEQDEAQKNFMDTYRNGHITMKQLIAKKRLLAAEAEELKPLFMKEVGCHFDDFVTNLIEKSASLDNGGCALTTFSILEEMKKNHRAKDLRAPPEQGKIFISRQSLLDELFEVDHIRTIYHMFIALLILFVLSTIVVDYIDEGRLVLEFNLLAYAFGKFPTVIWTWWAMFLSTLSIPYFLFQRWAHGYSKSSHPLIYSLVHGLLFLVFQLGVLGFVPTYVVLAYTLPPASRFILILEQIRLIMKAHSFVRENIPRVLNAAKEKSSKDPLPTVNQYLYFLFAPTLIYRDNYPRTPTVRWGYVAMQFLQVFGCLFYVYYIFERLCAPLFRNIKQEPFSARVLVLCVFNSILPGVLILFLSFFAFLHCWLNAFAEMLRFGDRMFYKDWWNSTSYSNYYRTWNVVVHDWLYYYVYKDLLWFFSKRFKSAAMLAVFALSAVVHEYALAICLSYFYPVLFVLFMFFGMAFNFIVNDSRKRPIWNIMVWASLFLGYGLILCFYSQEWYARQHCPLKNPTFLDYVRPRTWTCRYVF
The data set is described as follows: ACAT inhibitory activity (3H-oleyl-CoA, cholesteryl ester formation). It counts as biochemical. Particulars: microsome from thioglycolate-stimulated C57BL6J mouse macrophage; pre-incubated 37° C. 10 minutes, reaction 37° C. 20 minutes; read-out: IC50 (ACAT inhibiting rate 50%). The protocol:
According to the method of Hakamada et al. (Experimental Medicine Supplement vol. 14, No. 12, Circulation Research Protocol, p, 49-52, 1996), an abdominal macrophage was taken from a thioglycolate-stimulated C57BL6J mouse and cultured for 24 hours in a RPMI 1640-25 mM HEPES (pH7.0) medium containing rabbit β-very low density lipoprotein (β-VLDL, 150 μg cholesterol/ml) which had been prepared by the method of Ishii et al. (Ishii I et al., Arterioscler, Thromb., 12, 1139-1145, 1992). The abdominal macrophage was then collected by centrifugation (4° C., 1.000 rpm, 5 minutes) and sonicated. The sonicated liquid was centrifuged (4° C., 5000 rpm, 15 minutes) and then ultracentrifuged (4° C., 50,000 rpm, 90 minutes) to prepare a microsome. The microsome thus obtained was used for measuring ACAT inhibitory activity of a test compound as mouse abdominal macrophage microsome ACAT.
A mixture of a test compound, cholesterol-albumin-containing-Tris-HCL buffer (pH 7.5) and mouse abdominal macrophage microsome ACAT was pre-incubated at 37° C. for 10 minutes, and ^3H-oleyl-CoA was added to react at 37° C. for 20 minutes. […] The extract was subjected to silica gel thin chromatography (petroleum ether:diethyl ether:acetic acid=9:1:0.1 v/v), and the resulting ^3H-CE fraction was measured with a scintillation counter. […]

“monocalcium bis((2E)-3-[3-[7-chloro-3-(2-[[4-fluoro-2-(trifluoromethyl)phenyl]amino]-2-oxoethyl)-6-methyl-2-oxo-2H-chromen-4-yl]phenyl]acrylate) trihydrate [Compound A]”: in data set [1], the “Cmax (maximum blood level of Compound X)” value stood at 132 ± 29 ng/mL and the “Tmax (time required for reaching the maximum blood level)” value amounted to 40.2 ± 17.4 min. Also, in data set [2], the IC50 was determined as 1.96 µM.
